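Interpolation was linear, between the two tested concentrations surrounding the appropriate level; five concentrations were tested over 48 hours in 96-well plates. GI50 = concentration required for 50% inhibition of growth. TGI marks complete inhibition of growth.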
Columns and labels:
Experiment in all cases: NCI tumour cell line growth inhibition, 48 h; in the data active means GI50 below about 0.43 µM; inactive means the rest
M14 melanoma = tested on: M14 melanoma
NCI-H226 lung = tested on: NCI-H226 lung
NCI-H23 lung = tested on: NCI-H23 lung
DU-145 prostate = tested on: DU-145 prostate
U251 CNS = tested on: U251 CNS
RPMI-8226 leukemia = tested on: RPMI-8226 leukemia
UO-31 renal = tested on: UO-31 renal
HL-60(TB) leukemia = tested on: HL-60(TB) leukemia
NCI-H460 lung = tested on: NCI-H460 lung
OVCAR-3 ovarian = tested on: OVCAR-3 ovarian
MALME-3M melanoma = tested on: MALME-3M melanoma
HOP-62 NSCLC = tested on: HOP-62 NSCLC
UACC-257 melanoma = tested on: UACC-257 melanoma
RXF 393 renal = tested on: RXF 393 renal
K-562 leukemia = tested on: K-562 leukemia
ACHN renal = tested on: ACHN renal
HS 578T breast = tested on: HS 578T breast
KM12 colon = tested on: KM12 colon
OVCAR-5 ovarian = tested on: OVCAR-5 ovarian
SN12C renal = tested on: SN12C renal
TK-10 renal = tested on: TK-10 renal
NCI-H522 lung = tested on: NCI-H522 lung
PC-3 prostate = tested on: PC-3 prostate
786-0 renal = tested on: 786-0 renal
MDA-MB-231 breast = tested on: MDA-MB-231 breast
SF-268 CNS = tested on: SF-268 CNS
MCF7 breast = tested on: MCF7 breast
A498 renal = tested on: A498 renal
SF-295 CNS = tested on: SF-295 CNS
SNB-19 CNS = tested on: SNB-19 CNS
LOX IMVI melanoma = tested on: LOX IMVI melanoma
IGROV1 ovarian = tested on: IGROV1 ovarian
HT29 colon = tested on: HT29 colon
CAKI-1 renal = tested on: CAKI-1 renal
SK-OV-3 ovarian = tested on: SK-OV-3 ovarian
OVCAR-4 ovarian = tested on: OVCAR-4 ovarian
SW-620 colon = tested on: SW-620 colon
UACC-62 melanoma = tested on: UACC-62 melanoma
OVCAR-8 ovarian = tested on: OVCAR-8 ovarian
SF-539 CNS = tested on: SF-539 CNS
SNB-75 CNS = tested on: SNB-75 CNS
SR leukemia = tested on: SR leukemia
A549 NSCLC = tested on: A549 NSCLC
T-47D breast = tested on: T-47D breast
HCC-2998 colon = tested on: HCC-2998 colon
MOLT-4 leukemia = tested on: MOLT-4 leukemia
BT-549 breast = tested on: BT-549 breast
CCRF-CEM leukemia = tested on: CCRF-CEM leukemia
SK-MEL-5 melanoma = tested on: SK-MEL-5 melanoma
SK-MEL-28 melanoma = tested on: SK-MEL-28 melanoma
COLO 205 colon = tested on: COLO 205 colon
MDA-MB-435 = tested on: MDA-MB-435
HCT-15 colon = tested on: HCT-15 colon
HCT-116 colon = tested on: HCT-116 colon
NCI/ADR-RES ovarian = tested on: NCI/ADR-RES ovarian
EKVX NSCLC = tested on: EKVX NSCLC
SK-MEL-2 melanoma = tested on: SK-MEL-2 melanoma

CCCCCCCCCC(CCCC(O)CC(=O)O)OC1OC(COC2OC(C)C(O)C(O)C2O)C(O)C(O)C1OC1OC(CO)C(O)C(O)C1OC1OC(C)C(OC(=O)CC(C)C)C(O)C1O (stereo unspecified)
34.5 µM: TGI (A498 renal)
inactive: GI50 (M14 melanoma) > 60 µM | GI50 (NCI-H226 lung) > 60 µM | GI50 (NCI-H23 lung) > 60 µM | GI50 (DU-145 prostate) > 60 µM | GI50 (U251 CNS) > 60 µM | GI50 (RPMI-8226 leukemia) > 60 µM | GI50 (UO-31 renal) > 60 µM | GI50 (HL-60(TB) leukemia) > 60 µM | GI50 (NCI-H460 lung) > 60 µM | GI50 (OVCAR-3 ovarian) > 60 µM | GI50 (MALME-3M melanoma) > 60 µM | GI50 (HOP-62 NSCLC) > 60 µM | GI50 (UACC-257 melanoma) > 60 µM | GI50 (RXF 393 renal) > 60 µM | GI50 (K-562 leukemia) > 60 µM | GI50 (ACHN renal) > 60 µM | GI50 (HS 578T breast) > 60 µM | GI50 (KM12 colon) > 60 µM | GI50 (OVCAR-5 ovarian) > 60 µM | GI50 (SN12C renal) > 60 µM | GI50 (TK-10 renal) > 60 µM | GI50 (NCI-H522 lung) > 60 µM | GI50 (PC-3 prostate) > 60 µM | GI50 (786-0 renal) > 60 µM | GI50 (MDA-MB-231 breast) > 60 µM | GI50 (SF-268 CNS) > 60 µM | GI50 (MCF7 breast) > 60 µM | GI50 (A498 renal) 0.459 µM | GI50 (SF-295 CNS) > 60 µM | GI50 (SNB-19 CNS) > 60 µM | GI50 (LOX IMVI melanoma) > 60 µM | GI50 (IGROV1 ovarian) > 60 µM | GI50 (HT29 colon) > 60 µM | GI50 (CAKI-1 renal) > 60 µM | GI50 (SK-OV-3 ovarian) > 60 µM | GI50 (OVCAR-4 ovarian) > 60 µM | GI50 (SW-620 colon) > 60 µM | GI50 (UACC-62 melanoma) > 60 µM | GI50 (OVCAR-8 ovarian) > 60 µM | GI50 (SF-539 CNS) > 60 µM | GI50 (SNB-75 CNS) > 60 µM | GI50 (SR leukemia) > 60 µM | GI50 (A549 NSCLC) > 60 µM | GI50 (T-47D breast) > 60 µM | GI50 (HCC-2998 colon) > 60 µM | GI50 (MOLT-4 leukemia) > 60 µM | GI50 (BT-549 breast) > 60 µM | GI50 (CCRF-CEM leukemia) > 60 µM | GI50 (SK-MEL-5 melanoma) > 60 µM | GI50 (SK-MEL-28 melanoma) > 60 µM | GI50 (COLO 205 colon) > 60 µM | GI50 (MDA-MB-435) > 60 µM | GI50 (HCT-15 colon) > 60 µM | GI50 (HCT-116 colon) > 60 µM | GI50 (NCI/ADR-RES ovarian) > 60 µM | GI50 (EKVX NSCLC) > 60 µM
> 60 µM: TGI (M14 melanoma) | TGI (NCI-H226 lung) | TGI (NCI-H23 lung) | TGI (DU-145 prostate) | TGI (U251 CNS) | TGI (RPMI-8226 leukemia) | TGI (UO-31 renal) | TGI (HL-60(TB) leukemia) | TGI (NCI-H460 lung) | TGI (OVCAR-3 ovarian) | TGI (MALME-3M melanoma) | TGI (HOP-62 NSCLC) | TGI (UACC-257 melanoma) | TGI (RXF 393 renal) | TGI (K-562 leukemia) | TGI (ACHN renal) | TGI (HS 578T breast) | TGI (KM12 colon) | TGI (OVCAR-5 ovarian) | TGI (SN12C renal) | TGI (TK-10 renal) | TGI (NCI-H522 lung) | TGI (PC-3 prostate) | TGI (786-0 renal) | TGI (MDA-MB-231 breast) | TGI (SF-268 CNS) | TGI (MCF7 breast) | TGI (SF-295 CNS) | TGI (SNB-19 CNS) | TGI (LOX IMVI melanoma) | TGI (IGROV1 ovarian) | TGI (HT29 colon) | TGI (CAKI-1 renal) | TGI (SK-OV-3 ovarian) | TGI (OVCAR-4 ovarian) | TGI (SW-620 colon) | TGI (UACC-62 melanoma) | TGI (OVCAR-8 ovarian) | TGI (SF-539 CNS) | TGI (SNB-75 CNS) | TGI (SR leukemia) | TGI (A549 NSCLC) | TGI (T-47D breast) | TGI (HCC-2998 colon) | TGI (MOLT-4 leukemia) | TGI (BT-549 breast) | TGI (CCRF-CEM leukemia) | TGI (SK-MEL-5 melanoma) | TGI (SK-MEL-28 melanoma) | TGI (COLO 205 colon) | TGI (MDA-MB-435) | TGI (HCT-15 colon) | TGI (HCT-116 colon) | TGI (NCI/ADR-RES ovarian) | TGI (EKVX NSCLC)

CS(=O)(=O)CCN(CC#N)Cc1ccc(-c2ccc3ncnc(Nc4ccc(OCc5cccc(F)c5)c(Cl)c4)c3c2)o1
> 20.4 µM: TGI (HS 578T breast)
19.8 µM: TGI (LOX IMVI melanoma)
inactive: GI50 (M14 melanoma) 11.7 µM | GI50 (NCI-H226 lung) > 25 µM | GI50 (NCI-H23 lung) 13.2 µM | GI50 (DU-145 prostate) 10.5 µM | GI50 (U251 CNS) 15.2 µM | GI50 (RPMI-8226 leukemia) 11.7 µM | GI50 (UO-31 renal) 5.56 µM | GI50 (HL-60(TB) leukemia) 11.2 µM | GI50 (NCI-H460 lung) 10.9 µM | GI50 (OVCAR-3 ovarian) 10.6 µM | GI50 (MALME-3M melanoma) 14.9 µM | GI50 (HOP-62 NSCLC) > 25 µM | GI50 (UACC-257 melanoma) > 25 µM | GI50 (RXF 393 renal) 10.8 µM | GI50 (K-562 leukemia) 9.98 µM | GI50 (ACHN renal) 1.73 µM | GI50 (HS 578T breast) 6.13 µM | GI50 (KM12 colon) 9.34 µM | GI50 (OVCAR-5 ovarian) 7.89 µM | GI50 (SN12C renal) 12.7 µM | GI50 (TK-10 renal) 1.19 µM | GI50 (NCI-H522 lung) 4.3 µM | GI50 (PC-3 prostate) 10.9 µM | GI50 (786-0 renal) 14.9 µM | GI50 (MDA-MB-231 breast) 8.35 µM | GI50 (SF-268 CNS) 16 µM | GI50 (MCF7 breast) 8.66 µM | GI50 (A498 renal) 4.29 µM | GI50 (SF-295 CNS) 24.7 µM | GI50 (SNB-19 CNS) > 25 µM | GI50 (LOX IMVI melanoma) 6.52 µM | GI50 (IGROV1 ovarian) 6.25 µM | GI50 (HT29 colon) 10.3 µM | GI50 (CAKI-1 renal) 0.896 µM | GI50 (OVCAR-4 ovarian) 11.4 µM | GI50 (SW-620 colon) 11.7 µM | GI50 (UACC-62 melanoma) > 22.3 µM | GI50 (OVCAR-8 ovarian) 9.75 µM | GI50 (SF-539 CNS) > 25 µM | GI50 (SNB-75 CNS) > 17.1 µM | GI50 (SR leukemia) 8.93 µM | GI50 (A549 NSCLC) 14.6 µM | GI50 (T-47D breast) 5.48 µM | GI50 (HCC-2998 colon) 15.1 µM | GI50 (MOLT-4 leukemia) 8.81 µM | GI50 (BT-549 breast) 15.6 µM | GI50 (CCRF-CEM leukemia) 9.45 µM | GI50 (SK-MEL-5 melanoma) 4.91 µM | GI50 (SK-MEL-2 melanoma) 17.3 µM | GI50 (SK-MEL-28 melanoma) > 25 µM | GI50 (COLO 205 colon) > 19.1 µM | GI50 (MDA-MB-435) 11 µM | GI50 (HCT-15 colon) 10.2 µM | GI50 (HCT-116 colon) 11 µM | GI50 (NCI/ADR-RES ovarian) 8.17 µM
> 25 µM: TGI (M14 melanoma) | TGI (NCI-H226 lung) | TGI (NCI-H23 lung) | TGI (DU-145 prostate) | TGI (U251 CNS) | TGI (RPMI-8226 leukemia) | TGI (UO-31 renal) | TGI (HL-60(TB) leukemia) | TGI (NCI-H460 lung) | TGI (OVCAR-3 ovarian) | TGI (MALME-3M melanoma) | TGI (HOP-62 NSCLC) | TGI (UACC-257 melanoma) | TGI (K-562 leukemia) | TGI (ACHN renal) | TGI (KM12 colon) | TGI (OVCAR-5 ovarian) | TGI (SN12C renal) | TGI (TK-10 renal) | TGI (PC-3 prostate) | TGI (786-0 renal) | TGI (MDA-MB-231 breast) | TGI (SF-268 CNS) | TGI (MCF7 breast) | TGI (SF-295 CNS) | TGI (SNB-19 CNS) | TGI (IGROV1 ovarian) | TGI (HT29 colon) | TGI (CAKI-1 renal) | TGI (SK-OV-3 ovarian) | TGI (OVCAR-4 ovarian) | TGI (SW-620 colon) | TGI (UACC-62 melanoma) | TGI (OVCAR-8 ovarian) | TGI (SF-539 CNS) | TGI (SNB-75 CNS) | TGI (SR leukemia) | TGI (A549 NSCLC) | TGI (HCC-2998 colon) | TGI (MOLT-4 leukemia) | TGI (BT-549 breast) | TGI (CCRF-CEM leukemia) | TGI (SK-MEL-5 melanoma) | TGI (SK-MEL-2 melanoma) | TGI (SK-MEL-28 melanoma) | TGI (COLO 205 colon) | TGI (MDA-MB-435) | TGI (HCT-15 colon) | TGI (HCT-116 colon) | TGI (NCI/ADR-RES ovarian) | TGI (EKVX NSCLC)
> 23.5 µM: TGI (RXF 393 renal)
> 23.7 µM: TGI (A498 renal) | TGI (T-47D breast)
active: GI50 (SK-OV-3 ovarian) 0.107 µM | GI50 (EKVX NSCLC) 0.313 µM
> 18.5 µM: TGI (NCI-H522 lung)

Source: PubChem BioAssay (NCI)
